# Values of other authors in PMC3045272 (Acta Crystallographica Section D: Biological Crystallography, 2011).
# Tested on: Cn (calcineurin)
# Set-up: method as in Landrieu et al., 2010
# Conditions: modification of the fourth residue; ref Landrieu et al., 2010
substance,measurement,value
Debio 025,binding of the compound–CypA complex to Cn,prevents binding of the Debio 025–CypA complex to Cn
